The text below walks through data of patent US20240108753A1, “NUCLEIC ACID DELIVERY” (NUNTIUS THERAPEUTICS LIMITED, priority 2021, published 2024).

Entries after “also recorded” stand apart in the source; their conditions may differ.

Series [1] in a line: Hydrodynamic size, polydispersity index and zeta potential of dendrimer, lipid and mRNA complexes. Type of series: physicochemical. The settings on record: DOTMA/DOPE w/w 10:1 to mRNA; for Hydrodynamic size: dendrimer, lipid and mRNA complexes. How it is done:
The hydrodynamic size, polydispersity index and Zeta potential was determined for a set of the dendrimers disclosed in Tables 1 and 2.

For the next series, the system named is HeLa cells. The experiment in a line: mRNA (eGFP) transfection with peptide dendrimers and DOTMA/DOPE in full growth medium. Type of series: cell-based, human. The settings on record: HeLa; full growth medium; DOTMA/DOPE w/w 10:1 to mRNA; relative to G1,2-RL, 3-LR. How it is done: FIG. 28. mRNA transfection of the peptide dendrimers with lipid system in vitro. […] The mRNA used expressed an eGFP reporter gene. Following a 24 hour transfection, the cells were harvested to assay the eGFP expression. The eGFP expression was normalised with the total amount of protein of each transfection. The gene expression level was calculated by normalising the transfection value of the G1,2-RL, 3-LR, DOTMA/DOPE & mRNA treated cells. 1st, 2nd and 3rd generation dendrimers with varying cores and 1st, 2nd, and 3rd generation peptide motifs can transfect cells with mRNA effectively under the tested conditions.
FIG. 29. mRNA transfection of the peptide dendrimers with lipid system in vitro. HeLa cells were transfected with mRNA alone or mRNA with peptide dendrimers and DOTMA/DOPE (w/w=10:1 to mRNA). The N:P ratio of G1,2-RL,3-LR was at 0.16:1 while the N:P ratios of all other dendrimers at 8:1. The mRNA used expressed an eGFP reporter gene. Following a 24 hour transfection, the cells were harvested to assay the eGFP expression. The eGFP expression was normalised with the total amount of protein of each transfection. The gene expression level was calculated by normalising the transfection value of the G1,2-RL, 3-LR, DOTMA/DOPE & mRNA treated cells. 1st, 2nd and 3rd generation dendrimers with varying cores and 1st, 2nd, and 3rd generation peptide motifs can transfect cells with mRNA effectively under the tested conditions.
The effect on the number of generations of dendrimers on mRNA delivery was studied by transfecting HeLa cells in full growth medium conditions.

In series [2] the test system is mice tissue. As to the kind of experiment: In vivo luciferase DNA expression assays. The note with it: intramuscular; DOTMA/DOPE w/w=1:1 to DNA; NP 20:1; 48 h. How it is done:
Mice were injected with the dendrimers, lipid and DNA formulations, and tissues were isolated and snap-frozen for luciferase expression analysis 24 h and 48 h post intravenous and intramuscular injection respectively.
The tissues were homogenised with 1× reporter lysis buffer supplemented with Protease Inhibitors. Depending on the tissues, 1.5 to 3 times of the lysis buffer was used for the tissue homogenisation. Following the homogenisation, the lysates were centrifuged and the supernatants were used for assaying luciferase expression and protein content. The luciferase expression level was measured with a luminometer using a luciferase assay kit (Promega), following the manufacturer's instructions. The protein content was measured using a Biorad protein assay kit at 595 nm absorbance, following the manufacturer's instructions.
Mice were injected with the dendrimers, lipid and DNA formulation prepared for detection of luciferase expression post injection. Tissues were isolated and snap-frozen for luciferase expression analysis 24 h and 48 h post intravenous and intramuscular injection respectively.

In series [3] the test system is mice tissue. The experiment in a line: In vivo luciferase mRNA expression assays. The settings on record: for luciferase expression in tissues, mRNA delivery: intravenous, DOTMA/DOPE w/w=10:1 to mRNA, 6 hours. How it is done:
Peptide dendrimers were diluted to a respective concentration and mixed with mRNA for a desired NP ratio such as NP=0.15:1 or 8:1. The solution was incubated in room temperature for 10 mins. Lipid such as DOTMA/DOPE was diluted to a respective concentration and mixed with the dendrimer-mRNA complexes for a desired NP ratio such as NP-4.7:1. The solution was incubated in room temperature for 20 mins. When required, the solution would be further diluted before injection.
All animal procedures conducted in our studies complied with UK laws and were inclusive of ethics approval. Female CD-1 mice (n=39) aged 6-8 weeks left to habituate for 1-week upon their arrival. All mice were weighed, and the formulations were delivered intravenously (100 μl) via the tail vein using 30G insulin syringes (BD biosciences).
All mice were imaged 6 hours post injection. BLI was performed using an IVIS Lumina II (Perkin Elmer) Imaging system. Mice were administered D-luciferin (30 mg/mL, XenoLight, Perkin Elmer) at a dose of 150 mg/kg. Mice were anaesthetised 6 mins after receiving D-luciferin in a chamber with 5% isoflurane and then placed on a heated imaging platform while being maintained on 2.5% isoflurane. Mice were imaged 10 min post administration of D-luciferin with an exposure time set to ensure the signal acquired was within an effective detection range (open filter, binning 8, f-stop 1). Bioluminescence signal was quantified by measuring photon flux (photons/s) in the defined region of interest (ROI) using the Living Image software (Perkin Elmer). Following in vivo whole-body imaging, the mice were euthanised, cardiac blood taken, and the tissues extracted for ex vivo imaging. Here each tissue was placed into individual wells of a 24-well imaging plate (black sided, Eppendorf) containing 0.3 mg/mL D-luciferin in PBS). The imaging plate was placed in the centre of imaging platform (Lumina II system) and signal was measured using the acquisition settings detailed above. Finally, the tissues were placed in storage vials and flash frozen in liquid nitrogen.
Mice were injected with a composition comprising DOTMA/DOPE, mRNA encoding luciferase and either G1,2,3-RL, (FIG. 10, top panel; the “G1,2,3-RL, lipid and mRNA formulation”) or G1,2-RL,3-LR (FIG. 10, bottom panel: the “G1,2,3-RL, lipid and mRNA formulation”). Each formulation was prepared and injected at an NP ratio of 8:1 and 0.15:1. Mice were prepared for detection of luciferase expression post injection.

The next series deals with C2C12 cells. As to the kind of experiment: In vitro DNA (luciferase reporter) delivery. Type of series: cell-based. The settings on record: N:P=8:1, DOTMA/DOPE w/w=1:1 to DNA. The source says:
FIG. 25. In vitro DNA delivery to HeLa and C2C12 cells. HeLa cells were transfected with either DNA alone, G1,2,3-RL (N:P=5:1) and DOTMA/DOPE (at a w/w=1:1 to DNA) with DNA and G1,2,3-RL (N:P=5:1) and DOPG/DOPE (at a w/w=1:1 to DNA) with DNA (top panel). C2C12 cells (a muscle-derived cell line) were transfected with either DNA alone, polyethylenimine with DNA, G1,2-RL, 3-LR (N:P=8:1) and DOTMA/DOPE (at a w/w=1:1 to DNA) with DNA and NTX2 (N:P=8:1) and DOTMA/DOPE (at a w/w=1:1 to DNA) with DNA (bottom panel). The DNA used in both experiments encodes a luciferase reporter gene. NTX2 is a G1,2-RL, 3-LR dendrimer conjugated to a muscle targeting peptide ASSLINA ((LR)8(KRL)4(KRL)2KGSCGAASSLNIA(Acp)-NH2).
NTX2 is a G1,2-RL, 3-LR dendrimer conjugated to a muscle targeting peptide ASSLINA ((LR)8(KRL)4(KRL)2KGSCGAASSLNIA(Acp)-NH2).

For the substance “(LR)8(KRL)4(KRL)2KGSC-NH2 [G1,2-RL, 3-LR]”, the “Polydispersity Index (PDI)” value was determined as 0.122 in series [1] (N:P 0.16:1) and 0.261 in series [1] (N:P 8:1). Moreover, the figures for the “Zeta Potential” value in series [1] (N:P 0.16:1) and in series [1] (N:P 8:1) were 16 mV and 56 mV, respectively. The values for the Hydrodynamic size in series [1] (N:P 0.16:1) and in series [1] (N:P 8:1) were 127 nm and 84 nm, respectively. Moreover, the “mRNA transfection efficiency (eGFP), in words” value in the series on HeLa cells is on record as “the most effective in mRNA transfection”. The “luciferase expression in skeletal muscle, DNA delivery” value in the series on mice tissue [2] is reported as “capable of delivering DNA to skeletal muscle”. Moreover, the “luciferase expression with PEG2000 lipid” value with mice tissue [3] (DOTMA/DOPE/PEG2000 compared to DOTMA/DOPE) was “attenuated luciferase expression”. The “luciferase expression in tissues, mRNA delivery” value in the series on mice tissue [3] (NP 0.15:1) was “significant expression in the Gastrocnemius and Quadricep muscle tissues, liver, heart, kidney and adipose tissue”; in the series on mice tissue [3] (NP 0.15:1, listed as G1,2-RL,3-LR), “targets a wide range of immune cell tissues including lung, spleen, and lymph nodes; also recorded: improves efficiency of mRNA delivery to lung, spleen, and lymph nodes”; with mice tissue [3] (NP 8:1) it was “significant expression in the Gastrocnemius and Quadricep muscle tissues, liver, heart, kidney and adipose tissue; also recorded: significantly enhanced”. Besides, the “luciferase expression after DNA transfection” value in the series on C2C12 cells is “capable of successfully transfecting C2C12 cells”.
